# Experimental data as given in article PMC6923382, “Small molecules that inhibit TNF signalling by stabilising an asymmetric form of the trimer” (Nature Communications, 2019).
# Values joined by “and” are separate entries in the source; they are usually repeats but may differ in a detail not shown here. Equal entries are not always repeated. “Also recorded” adds a separate entry of the source. Where two headings read alike, the source gives them in different places.
# T1: Mouse TNF (mouse), P06804
# T1 chain: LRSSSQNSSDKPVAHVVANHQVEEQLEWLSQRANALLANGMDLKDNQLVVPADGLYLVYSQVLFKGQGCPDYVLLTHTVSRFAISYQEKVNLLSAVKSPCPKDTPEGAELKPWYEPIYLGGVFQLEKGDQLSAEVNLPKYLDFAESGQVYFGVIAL
# B1: Mouse TNF, P06804 80-235 (ligand)
# chain: T1 chain
# Assays:
# hTNF/hTNFR1 complex = molecular target: T2, hTNF/hTNFR1 complex (Homo sapiens, UniProt P01375); test: Analytical size exclusion chromatography of TNF:TNFR1 stoichiometry; type: biochemical
# T2 construct: stabilise an asymmetrical form of the soluble TNF trimer; host or cells: BV (baculovirus) for hTNFR1
# T2 sequence (P01375 77-233 limits assumed): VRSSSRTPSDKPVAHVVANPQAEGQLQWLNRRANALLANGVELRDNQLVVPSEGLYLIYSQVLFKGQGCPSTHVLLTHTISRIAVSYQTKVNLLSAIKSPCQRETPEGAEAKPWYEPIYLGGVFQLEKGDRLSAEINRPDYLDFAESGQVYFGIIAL
# T2 sequence (P19438 43-184 partner limits assumed): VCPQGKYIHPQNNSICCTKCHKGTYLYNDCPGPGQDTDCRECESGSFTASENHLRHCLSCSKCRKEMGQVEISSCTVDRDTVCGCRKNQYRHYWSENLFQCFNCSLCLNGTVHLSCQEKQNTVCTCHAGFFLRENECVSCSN
# Procedure: A stock of compound bound to human (h) TNF was prepared by pre-incubating hTNF (300 μM, molecular weight based on the homotrimer) overnight at 4 °C with UCB-5307 at a final concentration range from 90 μM to 690 μM, maintaining a constant DMSO concentration of 1%. The compound-bound hTNF was incubated for 1 h at 22 °C with hTNFR1 at a 3.2-fold molar excess over homotrimers (final concentrations: hTNFR1 240 μΜ, hTNF 75 µM). Identical samples were prepared with DMSO only, giving a final DMSO concentration of 0.25% for both sets of samples. Alternatively, a fully assembled hTNF/hTNFR1 complex (3 receptors per homotrimer) was formed by incubating hTNF with a 3.2-fold molar excess of hTNFR1 for 1 h at 22 °C. The TNF/TNFR1 complex was then incubated overnight at 4 °C with UCB-5307 at a final concentration range from 90 µM to 690 µM. Samples were subject to analytical size exclusion using HPLC. Injection volumes of 50 µL were separated on a TSK G3000SW L × I.D. 30 cm × 7.5 mm column (10 µm particle size) pre-equilibrated in 10 mM HEPES, pH 7.5, 150 mM NaCl.
# TNF (L57F) = molecular target: T3, TNF (L57F) (Homo sapiens, UniProt P01375, L133F); test: HEK reporter gene assay, L57F TNF; type: cell-based; conditions: 10 pM L57F TNF; HEK NFκΒ reporter
# T3 construct: Human TNF (CID2043, UniProt P01375 residues 77–233); 6XHis-Smt3 (N, cleaved yes); host or cells: E. coli
# T3 sequence (P01375 77-233 L133F): as the sequence (P01375 77-233 limits assumed) above, with L57F counted along it
# Procedure: Stimulation of HEK-293 cells by TNF leads to activation of the NF-κB pathway. The HEK-Blue^TM CD40L SEAP (secreted embryonic alkaline phosphatase) reporter cell line used to determine TNF activity (InvivoGen, #hkb-CD40, cells were described as mycoplasma free when purchased and were tested using Mycoalert [Lonza] after each batch of assay vial preparation). Compounds were titrated in DMSO and pre-incubated with TNF at a concentration giving half maximal response (10 pM for human or 20 pM for mouse) or the anti-human TNFR1 agonist antibody (R&D Systems. #AF 225) for 1 h. Cells were added to the compound/stimulus mixture and further incubated for 18 h. SEAP was measured using the colorimetric substrate HEK-Blue Detect^TM or QUANTI-Blue^TM from InvivoGen. Percentage inhibitions for compound dilutions were calculated between a DMSO control and maximum inhibition (by excess anti-TNF biologic, or NF-κB inhibitor–TPCA-1 [Tocris #2559, R&D Systems]). The IC50 was determined as the point of inflexion between the fitted minimum and maximum of the compound dose response curve, calculated using 4PL fitted curve. Mean IC50s are reported as a mean of at least two experiments. Dose response curves for TNF and the anti-human TNFR1 agonist antibody are shown in Supplementary Fig. 9. […]
# In this assay reduction is luminescence is due to cell killing by TNF and inhibition causes increased luminescence. […]
# TNF [1] = molecular target: T4, TNF (Homo sapiens, UniProt P01375); test: Thermal denaturation assay of thermal stability; type: binding; design: stabilise an asymmetrical form of the soluble TNF trimer
# Procedure: A fluorescence probed thermal denaturation assay was performed to assess the effect of the compounds on the thermal stability of TNF (or other members of the TNF family) as a measure of compound binding. The reaction mixture contained 5 µL of 30× SYPRO® Orange dye (Invitrogen) and 5 µL of TNF (at 1 mg/mL), 37.5 μL PBS, pH 7.4 and 2.5 μL of compound (at 2 mM in DMSO). The mixture (10 µL) was dispensed in quadruplicate into a 384 PCR optical well plate and was run on a 7900HT Fast Real-Time PCR System ([…]). The PCR System heating device was set at 20 °C to 99 °C with a ramp rate of 1.1 °C min^−1; fluorescence changes in the wells were monitored by a CCD device. The fluorescence intensity increase was plotted as a function of temperature and the Tm calculated as the midpoint of this denaturation curve (determined as the point of inflection).
# Target sequence in this assay (P01375 77-233 limits assumed): as the sequence (P01375 77-233 limits assumed) above
# TNF [2] = molecular target: T4, TNF; test: TNF reporter gene assay HEK-293, human TNF; type: cell-based; design: stabilise an asymmetrical form of the soluble TNF trimer; conditions: 10 pM wild-type TNF; HEK NFκΒ reporter
# Procedure: Stimulation of HEK-293 cells by TNF leads to activation of the NF-κB pathway. The HEK-Blue^TM CD40L SEAP (secreted embryonic alkaline phosphatase) reporter cell line used to determine TNF activity (InvivoGen, #hkb-CD40, cells were described as mycoplasma free when purchased and were tested using Mycoalert [Lonza] after each batch of assay vial preparation). […] Cells were added to the compound/stimulus mixture and further incubated for 18 h. SEAP was measured using the colorimetric substrate HEK-Blue Detect^TM or QUANTI-Blue^TM from InvivoGen. […] The IC50 was determined as the point of inflexion between the fitted minimum and maximum of the compound dose response curve, calculated using 4PL fitted curve. Mean IC50s are reported as a mean of at least two experiments.
# Target sequence in this assay (P01375 77-233 limits assumed): as above
# TNF [3] = molecular target: T4, TNF; test: Biacore kinetics of binding; design: Human TNF (CID2043, UniProt P01375 residues 77–233); 6XHis-Smt3 (N, cleaved yes); host or cells: E. coli TOP10
# Procedure: Surface plasmon resonance using a Biacore T100/T200 was used to measure the association rate constant (ka), the dissociation rate constant (kd) and the affinity (KD) of compounds. TNF (VCID 2043 Beryllium) was immobilised to approximately 5 kRU as described above and equilibrated for at least 5 h in HBS P + buffer with 5% DMSO. UCB-6876 was serially diluted from 187.5 µM, flowing over the immobilised TNF at 50 µL/min for 3 min before allowing full dissociation under flow for at least 6 min. […] […] The compounds were allowed to dissociate for 2 h under flow.
# [4] = tested on: TNFR1 extracellular domain and control proteins; test: Biacore SPR binding to control surfaces; conditions: capture antibody plus TNFR1, capture antibody
# Source text: (§1) BIA (Biomolecular Interaction Analysis) uses SPR to measure the binding of compounds to a protein immobilised on a chip surface. For this purpose a Biacore A100/4000 (GE Healthcare) was used. A CM5 sensor was immobilised via amine coupling on flow cell 1 with human Fc antibody domain (10k response units; kRU) and TNFR-Fc captured (2.5 kRU), flow cell 2 TNF (11 kRU), flow cell 3 was left blank (for non-specific binding), flow cell 4 TNFR-Fc (10 kRU), and flow cell 5 goat anti-human Fc 16 kRU). The sensor surface was then equilibrated in HBS-P (10 mM HEPES pH 7.4, 0.15 M NaCl, 0.005% Surfactant P20, BIAcore, GE Healthcare) with 5% DMSO for at least 5 h. Compounds were diluted from 100 mM stocks into DMSO matched buffer and then flowed over the immobilised flow cells at a concentration of 250 µM at the maximum flow rate of 30 μL/min. Background subtraction binding curves were analysed using the Biacore A100 BIA evaluation software version 1.1 following standard procedures.
# [5] = Dynamic light scattering (colloidal aggregation); type: physicochemical; conditions: 100 μM; no detergent; 25°C; n=5
# Procedure: Dynamic light scattering (DLS) experiments have been performed with compounds […]
# baseline control and positive control (miconazole at 100 μM) were included. The radius data […]
# compound in the absence of detergent.
# DLS data (Malvern Nano ZS). Each sample (150 μl) was measured 5 times in a low volume disposable sizing cuvette at 25°C using 173º non-invasive backscatter (NIBS). […]
# TNF [6] = molecular target: T4, TNF; test: Biacore SPR fragment binding to immobilised TNF; design: Human TNF (CID2043, UniProt P01375 residues 77–233); 6XHis-Smt3 (N, cleaved yes); host or cells: E. coli TOP10; conditions: SPR fragment screen; concentration-dependent response
# Source text: as §1
# Target sequence in this assay (P01375 77-233): as the sequence (P01375 77-233 limits assumed) above
# TNF [7] = molecular target: T4, TNF; test: Mass spectrometry monomer exchange; type: biochemical; design: stabilise an asymmetrical form of the soluble TNF trimer; conditions: human TNF pre-incubated with compound, mixed 1:1 with mouse TNF
# Procedure: Mouse and human TNF protein were made up to a concentration of 2 mg/mL (20 mM ammonium acetate, pH 7.4) and desalted and buffer-exchanged using Zeba columns. The protein was then diluted to 20 μM in ammonium acetate buffer. An aliquot of each was mixed 1:1 and analysed at various time points. Human TNF was incubated (1:1, v/v) with compound (20 μΜ), 4% DMSO in 20 mM ammonium acetate) and mixed with mouse TNF (1:1) and tested at various time points using an Advion Nanomate (for sample introduction by nanospray) and ThermoFisher Exactive Plus EMR Mass Spectrometer. The following settings were utilised on the mass spectrometer: scan range 1000 to 8000 m/z; spray voltage 1.5 kV; capillary temperature 150 °C; S-lens RF 200; source DC offset 25 V, injection flatapole 7 V; inter flatapole 6 V; bent flatapole DC 6 V; EMR mode on. Data were processed using ThermoFisher Protein Deconvolution 3.0.
# Target sequence in this assay (P01375 77-233 limits assumed): as above
# TNF [8] = molecular target: T4, TNF; test: Biacore binding with and without non-ionic detergent; design: stabilise an asymmetrical form of the soluble TNF trimer; conditions: 0.01% v/v Triton X-100 and 0.025% v/v Tween-80; Biacore T200
# Procedure: Experiments to show any effect of addition of non-ionic detergent were performed on a Biacore, with human TNF on the solid phase and compounds in solution phase in the presence and absence of 0.01% v/v Triton X-100 and 0.025% v/v Tween-80.
# Three Biacore T200s were treated with sodium hypochlorite to remove any traces of detergent. Each machine was equilibrated in either HBS with no detergent (control), HBS:
# Tween-P80 (0.025% v/v) or HBS: Triton X-100 (0.01% v/v). Human TNF was tethered to ~ 2000 RU before equilibration in the equivalent control or detergent buffers plus 1% DMSO. […]
# were fitted to a BIAevaluation T200 1:1 algorithm and the fitted data shown. […]
# Target sequence in this assay (P01375 77-233 limits assumed): as above
# [9] = molecular target: T1, Mouse TNF (mouse), P06804; test: native MS; mouse and human TNF, each 20 µM in 20 mM ammonium acetate pH 7.4, mixed 1:1 and analysed at various time points; no compound; nanospray, Exactive Plus EMR; conditions: remark: other sources report otherwise
# [10] = molecular target: T1, Mouse TNF (mouse), P06804; test: native MS; human TNF pre-incubated (saturated) with UCB-6876, then mixed 1:1 with mouse TNF; 20 mM ammonium acetate, 4% DMSO in the compound stock; various time points; conditions: remark: other sources report otherwise
molecule,measurement,setting,value
Cc1ccc(C)c(Cn2c(C(O)c3ccncc3)nc3ccccc32)c1 (stereo not shown) [UCB-5307],"number of TNFR1 bound per hTNF trimer, hTNF preloaded with compound","hTNF/hTNFR1 complex; 90-690 μM compound overnight, then 3.2-fold excess hTNFR1",dose-dependent shift from three receptors bound to two
same,effect on preformed hTNF/hTNFR1 complex,"hTNF/hTNFR1 complex; 90-690 µM compound, 3.2-fold excess hTNFR1",dislodging one of the receptors
same,inhibition of L57F TNF,TNF (L57F),did not inhibit
same,Tm difference (hTNF + compound) - (hTNF+DMSO),TNF [1]; DMSO 5%,12.2 °C
same,Tm (mean ± SD),"TNF [1]; hTNF + DMSO (5%) + compound, n=4 replicates",72.9 ± 0.6 °C
same,Tm1 Average,"TNF [1]; inhouse hTNF 5% DMSO + compound, 4 wells",72.9 °C
same,Unreviewed - Tm1,"TNF [1]; single wells, inhouse hTNF 5% DMSO + compound, listed as 1445307-000, in °C",72.4 and 73.5 and 73.2
same,inhibition of wild-type TNF,TNF [2],inhibited
same,kd (off-rate),"TNF [3]; SPR single-cycle, linked TNF with n-terminal HKH tag",5.76e-05 s⁻¹
same,Kd,"TNF [3]; SPR single-cycle, linked TNF with n-terminal HKH tag, read-out: KD",0.009 µM
Cc1ccccc1Cn1c(CO)nc2ccccc21 [UCB-6786],binding to TNFR1 and control proteins (selectivity),[4],selectivity over the TNFR1 extracellular domain and control proteins
same,colloidal aggregation (DLS radius),[5],no evidence of colloidal aggregation
same,binding to immobilised TNF,TNF [6],bound to TNF
Cc1ccc(C)c(Cn2c(CO)nc3ccccc32)c1 [UCB-6876],binding to TNFR1 and control proteins (selectivity),[4],selectivity over the TNFR1 extracellular domain and control proteins; also recorded: not to control proteins
same,exchange of mouse and human TNF monomers,TNF [7],blocks the exchange of mouse and human monomers
same,effect of non-ionic detergents on binding to human TNF,TNF [8],does not alter the binding
same,binding to immobilised TNF,TNF [6],bound to TNF; also recorded: specifically binds to immobilised TNF
same,Kd,"TNF [3]; SPR, multicycle, Biacore T100, read-out: KD (kd/ka)",22 µM
same,kon,"TNF [3]; SPR, multicycle, Biacore T100, read-out: association rate constant ka",923 M⁻¹ s⁻¹
same,koff,"TNF [3]; SPR, multicycle, Biacore T100, read-out: dissociation rate constant kd",0.02 s⁻¹
B1,stoichiometry N,[9],3
same,stoichiometry N,[10],3
